Results on eleven compounds are retold here after patent US20120083476A1, “HETEROARYL-SUBSTITUTED SPIROCYCLIC DIAMINE UREA MODULATORS OF FATTY ACID AMIDE HYDROLASE” (Janssen Pharmaceutica NV, priority 2009, published 2012).

Assay [1] concerns CREAE mice. The settings on record: Baker 2001; cited from earlier work.
Assay [2] concerns rats. As to conditions: WO 02/087569; cited from earlier work.
Assay [3] relates to rats. As to conditions: WO 02/087569; cited from earlier work. This is another data set of the same source.
Assay [4] deals with T1, Rat FAAH (Rattus norvegicus, UniProt P97612).
T1 construct: expressed in transfected cells; host or cells: SK-N-MC cells stably transfected with rat FAAH cDNA (G418 selection)
T1 sequence (P97612 1-579): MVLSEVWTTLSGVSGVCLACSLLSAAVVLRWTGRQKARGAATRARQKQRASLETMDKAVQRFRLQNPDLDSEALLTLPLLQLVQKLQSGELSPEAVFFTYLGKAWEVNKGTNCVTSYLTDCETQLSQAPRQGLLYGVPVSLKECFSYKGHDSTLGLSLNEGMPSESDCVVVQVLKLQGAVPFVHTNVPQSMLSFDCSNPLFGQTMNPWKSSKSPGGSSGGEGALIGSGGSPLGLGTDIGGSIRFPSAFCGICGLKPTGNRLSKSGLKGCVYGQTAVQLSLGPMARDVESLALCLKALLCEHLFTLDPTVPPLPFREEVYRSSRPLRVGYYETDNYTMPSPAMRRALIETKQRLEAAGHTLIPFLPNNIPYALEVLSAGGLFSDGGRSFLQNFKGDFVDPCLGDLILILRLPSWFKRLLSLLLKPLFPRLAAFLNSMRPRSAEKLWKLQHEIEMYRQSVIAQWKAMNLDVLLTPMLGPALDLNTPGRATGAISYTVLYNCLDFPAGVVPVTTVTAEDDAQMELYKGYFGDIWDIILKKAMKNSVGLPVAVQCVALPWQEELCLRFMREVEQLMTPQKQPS
The assay can be described thus: Assay Method 2: rat FAAH assay (3H-anandamide hydrolysis in cell homogenate). In kind it is biochemical. As to conditions: read-out: Assay 2 IC50. In outline:
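Homogenates of T84 cells or SK-N-MC cells stably transfected with rat FAAH, in pH 9 Tris/EDTA/glycerol/Triton buffer, incubated 1 h at room temperature with 3H-anandamide. Released labeled ethanolamine separated from substrate on activated charcoal and counted by scintillation; values averaged over runs.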

Assay [5] deals with T2, FAAH (Homo sapiens, UniProt O00519).
T2 sequence (O00519 1-579): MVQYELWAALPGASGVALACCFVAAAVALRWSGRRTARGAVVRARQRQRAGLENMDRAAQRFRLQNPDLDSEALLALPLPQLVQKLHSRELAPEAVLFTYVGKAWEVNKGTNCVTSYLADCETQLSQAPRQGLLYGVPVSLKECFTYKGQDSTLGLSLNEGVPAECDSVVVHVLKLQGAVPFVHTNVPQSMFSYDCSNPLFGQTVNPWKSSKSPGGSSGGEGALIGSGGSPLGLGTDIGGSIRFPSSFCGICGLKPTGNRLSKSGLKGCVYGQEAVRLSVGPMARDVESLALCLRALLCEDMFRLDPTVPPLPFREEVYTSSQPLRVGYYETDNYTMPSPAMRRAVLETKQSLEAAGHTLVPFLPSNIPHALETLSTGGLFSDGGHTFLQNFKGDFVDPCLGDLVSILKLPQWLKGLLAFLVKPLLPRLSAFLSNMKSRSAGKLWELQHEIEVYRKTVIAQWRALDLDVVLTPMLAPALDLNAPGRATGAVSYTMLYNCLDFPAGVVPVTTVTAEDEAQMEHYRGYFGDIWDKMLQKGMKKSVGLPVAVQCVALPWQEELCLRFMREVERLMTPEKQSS
The assay can be described thus: Assay Method 1: human FAAH assay (3H-anandamide hydrolysis in cell homogenate). The format is biochemical. Also noted: expressed in transfected cells; host or cells: SK-N-MC cells stably transfected with human FAAH cDNA (G418 selection); alternatively T84 cell pellets. As to conditions: read-out: Assay 1 IC50. In a few lines: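 Homogenates of T84 cells or SK-N-MC cells stably transfected with human FAAH, in pH 9 Tris/EDTA buffer with 0.02% Triton X-100. Incubated 1 h at rt with compound and 80 nM (final) [3H-ethanolamine]-anandamide. Released 3H-ethanolamine separated on charcoal filters and counted by scintillation.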

Assay [6] concerns rats. The settings on record: cited from earlier work.
For assay [7], the target named is T2, FAAH. The settings on record: WO 04/033652; cited from earlier work.
Assay [8] concerns rats. The settings on record: WO 04/033652; cited from earlier work.
The subject of assay [9] is rats. The settings on record: rat; Kathuria 2003; cited from earlier work.

As for `CCCCCCCCCCCCCCCCS(=O)(=O)F` [AM374], in assay [1], the “spasticity in CREAE mice” value was “significantly reduce spasticity”.

Regarding `Cc1nc(-c2ccccc2)c(-c2ccccc2)n1CCCCCCNC(=O)Oc1ccccc1F` [BMS-1], in [2], the “analgesic effect in Chung spinal nerve ligation model” value is “analgesic effect”. In assay [3], the “analgesic effect in Hargraves test of acute thermal nociception” value is on record as “analgesic effect”.

What is called IC50 is the concentration that inhibits the measured activity by half. For the compound `O=C(Nc1cccnc1)N1CC2(CCN(Cc3cccc(Oc4ccc(F)c(F)c4)c3)CC2)C1` [Example 124, 7-[3-(3,4-Difluoro-phenoxy)-benzyl]-2,7-diaza-spiro[3.5]nonane-2-carboxylic acid pyridin-3-ylamide], the IC50 in assay [4] is 0.4 µM; in assay [5], 0.3 µM.

For `O=C(Nc1cccnc1)N1CC2(CCN(Cc3cccc(Oc4ccc(OC(F)(F)F)cc4)c3)CC2)C1` [Example 125, 7-[3-(4-Trifluoromethoxy-phenoxy)-benzyl]-2,7-diaza-spiro[3.5]nonane-2-carboxylic acid pyridin-3-ylamide], the IC50 was determined as 3 µM in assay [4] and 2.6 µM in assay [5].

For the compound `O=C(Nc1cccnc1)N1CC2(CCN(Cc3cccc(Oc4ccc(C(F)(F)F)cc4)c3)CC2)C1` [Example 126, 7-[3-(4-Trifluoromethyl-phenoxy)-benzyl]-2,7-diaza-spiro[3.5]nonane-2-carboxylic acid pyridin-3-ylamide], the IC50 turned out to be 1 µM in assay [4] and 0.16 µM in assay [5].

As for `N#Cc1ccc(Oc2cccc(CN3CCC4(CC3)CN(C(=O)Nc3cccnc3)C4)c2)cc1` [Example 127, 7-[3-(4-Cyano-phenoxy)-benzyl]-2,7-diaza-spiro[3.5]nonane-2-carboxylic acid pyridin-3-ylamide], the results for the concentration for half-maximal inhibition (IC50) in [4] and in assay [5] were 1.1 µM and 4 µM, respectively.

Regarding `O=C(Nc1cccnc1)N1CC2(CCN(Cc3cccc(Oc4ccc(S(=O)(=O)C(F)(F)F)cc4)c3)CC2)C1` [Example 129, 7-[3-(4-Trifluoromethanesulfonyl-phenoxy)-benzyl]-2,7-diaza-spiro[3.5]nonane-2-carboxylic acid pyridin-3-ylamide], the IC50 turned out to be 8 µM in assay [4] and 1.7 µM in [5].

As for `O=C(Nc1cccnc1)N1CC2(CCN(Cc3cccc(Oc4ccc5ncccc5c4)c3)CC2)C1` [Example 130, 7-[3-(Quinolin-6-yloxy)-benzyl]-2,7-diaza-spiro[3.5]nonane-2-carboxylic acid pyridin-3-ylamide], the values for the IC50 in assay [4] and in assay [5] were 2.5 µM and 0.83 µM, respectively.

`O=C(Nc1cccnc1)N1CC2(CCN(Cc3cccc(C#Cc4ccccc4Cl)c3)CC2)C1` [Example 131, 7-[3-(2-Chloro-phenylethynyl)-benzyl]-2,7-diaza-spiro[3.5]nonane-2-carboxylic acid pyridin-3-ylamide]: the half-maximal inhibitory concentration (IC50) in [4] was determined as 3 µM; in assay [5], 0.33 µM.

As for `O=C(CCCCCCc1ccccc1)c1ncc(-c2ccccn2)o1` [OL-135], in assay [6], the “analgesia in hot plate test” value is reported as “analgesic activity”. For the same compound, the “inhibition of FAAH” value in assay [7] is recorded as “potent inhibitor”. The “analgesic activity in tail emersion test” value in [8] is “analgesic activity”.

On to `NC(=O)c1cccc(-c2cccc(OC(=O)NC3CCCCC3)c2)c1` [URB-597], for which the “analgesia in hot plate test” value in assay [6] is given as “analgesic efficacy”. The “analgesic efficacy in formalin test” value in assay [9] is “analgesic efficacy”.
